From patent US9820990B2, “Methods of treating disorders associated with protein aggregation” (University of Pittsburgh—Of the Commonwealth System of …, priority 2009, dated 2017)
Structures can show the parent of a compound that is named as a salt. Where two headings read alike, the source gives them in different places.

Tests used:
[1] = tested on: sGFP::ATZ; assay: Hit compound characterization: dose-response in the sGFP::ATZ HCS assay; type: in vivo, C. elegans; parameters: key to dose-dependent response: c: Compound demonstrated a dose-dependent response.; Compound failed to demonstrate a dose-dependent response; conditions: for dose-dependent response: retest at 0-100 μM, 24 or 48 hours; for effect on sGFP::ATZ accumulation: dose-response, 0-100 μM
Method: Imaging of animals using the ArrayScan VTI: Prior to imaging, worms were anesthetized by adding 30 μl of 0.02 M NaN3 in PBS to each well. Plates were resealed, inverted twice, and incubated for 5 minutes at room temperature. Images were acquired with the ArrayScan VTI HCS Reader fitted with a 2.5× objective and a 0.63× coupler using a 2-channel (TRITC and GFP) assay. Real-time analysis was performed using the SpotDetector BioApplication optimized to quantify fluorescent protein expression in C. elegans. Image acquisition and analysis of a 384-well plate was completed in <45 minutes. The total number of animals in the well was determined by counting the number of red heads (Pmyo-2mRFP) in the TRITC channel. Total spot area or total spot intensity was determined by quantifying the GFP-positive spots in the GFP channel. Total spot area or total spot intensity per animal was determined by dividing the values from the GFP channel by that from the TRITC channel.
Hit compound characterization: Compounds that were identified as potential hits were purchased (if available) and retested for verification. […] Compounds that produced a response in a dose-dependent manner were further tested for a time-dependent response. Compound dose-response curves were performed by dispensing 15 μl of a 4× stock solution into 384-well plates containing 15 μl of assay medium (see above). Thirty-five animals were sorted into each well bringing the volume to ˜60 μl. The final compound concentrations in each well varied from 0-100 μM. Assay plates were incubated in a 22° C. incubator for 24 or 48 hours. Each compound was tested in quadruplicate in at least 2 independent experiments.
Statistical evaluation: Statistical evaluation of data was performed using Prism® (Graphpad Software). The significance of actual and predicted data in FIGS. 12, 14 and 15 was determined using a linear regression analysis and comparing the slope and goodness-of-fit (r2) values. Statistical significance of the spot count, spot area and spot intensity values between N2 (wild-type) and various transgenic lines in FIG. 13 and dose-response in FIG. 17 was determined using an unpaired, one-tailed, Student's t-test.
Compound screen: To test the HCS protocol, a pilot drug screen was performed using the library of pharmacologically active compounds (LOPAC1280™ 1280 compounds). Tight gating parameters for total fluorescence were used to sort 35 young adult Pnhx2sGFP::ATZ animals into wells of 384-well plates containing […] of a LOPAC compound and 0.5% DMSO. Pnhx2sGFP::ATZ animals incubated with 0.5% DMSO served as untreated controls and were placed in the first-two and last-two columns of each plate. In a representative experiment, plate 1 of the LOPAC library was set-up for screening on day 1, and 3 other plates were set-up on the next day. After 24 incubation at 25° C., animals were immobilized by the addition of NaAz and placed in the ArrayScan VTI for automated imaging. To examine for systematic errors, the raw data (total spot area/animal) were depicted as a plate-well scatter plot (FIG. 17A). […] This difference reflects a wider sort-window used to collect animals on day 1 in comparison to that used on day 2. As the average values of the negative controls and that of the sample wells were similar, we combined the control and samples wells for normalization and to identify potential hits using the z-score (FIG. 17B). The ArrayScan VTI reads microtiter plates by rows, alternating from left-to-right, and then right-to-left. For some assays, we noted that the control fluorescence values would drift upwards slightly in rows towards the bottom of the plate. This drift appeared to correlate with an increase in chamber temperature during the scanning period and was minimized by cooling the chamber with a fan or shortening the read times by using 2.5× objective with a 0.6 coupler. Nonetheless, intra-plate variation was controlled for by presenting the data as a B-score (FIG. 17C). […]

[2] = tested on: sGFP::ATZ; assay: LOPAC library high-content primary screen for sGFP::ATZ accumulation in transgenic animals; type: in vivo, C. elegans; conditions: for Rank-score: 24 h
[3] = among compounds that decreased ATZ accumulation, based on relative rank-scores
[4] = average of compound rankings by ascending B-score from two independent screens, 50 μM, <110 decreased, >1225 increased sGFP::ATZ inclusions
[5] = among compounds that increased ATZ accumulation, based on relative rank-scores

| Compound | Overall rank-order [2, 3] | Rank-score [2, 4] | Overall rank-order [2, 5] | further results |
| --- | --- | --- | --- | --- |
| CO[C@@]1(NC(=O)CSCC#N)C(=O)N2C(C(=O)O)=C(CSc3nnnn3C)CS[C@@H]21 [cefmetazole sodium] | 9 | 51.0 |  | dose-dependent response [1]: cefmetazole sodium^d |
| NC(=Nc1ccccc1)NC(=O)c1nc(Cl)c(N)nc1N [phenamil methanesulfonate] | 13 | 57.5 |  | dose-dependent response [1]: phenamil methanesulfonate^d |
| NCCc1c[nH]c2ccc(C(N)=O)cc12.O=C(O)/C=C\C(=O)O [5-carboxamidotryptamine maleate] | 29 | 95.5 |  |  |
| ivermectin | 1 | 2.0 |  | dose-dependent response [1]: ivermectin^d |
| Cl.N[C@@H](CCl)C(=O)O [beta-chloro-L-alanine hydrochloride] | 16 | 61.5 |  |  |
| O=C1Nc2ccccc2/C1=C1/Nc2ccccc2/C1=N\O [indirubin-3′-oxime] | 25 | 85.0 |  |  |
| C[C@](N)(Cc1ccc(O)c(O)c1)C(=O)O [L-alpha-methyl DOPA] | 18 | 72.5 |  |  |
| CC(=O)c1c(O)c(C)c(O)c(Cc2c(O)c3c(c(C(=O)/C=C/c4ccccc4)c2O)OC(C)(C)C=C3)c1O [rottlerin] |  | 1229.5 | 15 | dose-dependent response [1]: rottlerin^c |
| CCCCOC(=O)NS(=O)(=O)c1sc(CC(C)C)cc1-c1ccc(Cn2c(CC)nc3c(C)cc(C)nc32)cc1 [L-162,313] |  | 1238.0 | 9 |  |
| Cc1nc(-c2ccc(-c3ccc(C(=O)N4CCc5cc6c(cc54)C4(CCN(C)CC4)CO6)cc3)c(C)c2)no1 [SB 224289 hydrochloride] |  | 1255.0 | 3 |  |
| COc1ccc(C2CNC(=O)C2)cc1OC1CCCC1 (stereo not shown) [rolipram] | 14 | 58.0 |  |  |
| Cc1cnc(C(=O)NCCc2ccc(S(=O)(=O)NC(=O)NC3CCCCC3)cc2)cn1 [glipizide] |  | 1234.0 | 12 | dose-dependent response [1]: glipizide^d |
| CS(=O)(=O)O.Cc1c(C(=O)c2cccc3ccccc23)c2cccc3c2n1[C@H](CN1CCOCC1)CO3 [(R)-(+)-WIN 55,212-2 mesylate] |  | 1231.0 | 14 |  |
| CC1=C(C(=O)O)N2C(=O)[C@@H](NC(=O)[C@H](N)C3=CCC=CC3)[C@H]2SC1 [cephradine] | 27 | 90.0 |  |  |
| CC(C)(C)c1cc(/C=C(\C#N)C(N)=S)cc(C(C)(C)C)c1O [tyrphostin AG 879] |  | 1236.5 | 10 | effect on sGFP::ATZ accumulation [1]: increased; effect on sGFP::ATZ accumulation ([1]; listed as tyrphostatin): increase in sGFP::ATZ accumulation; dose-dependent response [1]: tyrphostin AG 879^c |
| C/C=C(/C)C(=O)O[C@H]1C(C)=C2[C@H]([C@@H]1OC(=O)CCCCCCC)[C@@](C)(OC(C)=O)C[C@H](OC(=O)CCC)[C@@]1(O)[C@H]2OC(=O)[C@@]1(C)O [thapsigargin] |  | 1256.0 | 2 | dose-dependent response [1]: thapsigargin^c |
| O=S(=O)(c1cccc2cnccc12)N1CCNCC1 [HA-100] | 10 | 52.5 |  |  |
| CC(=O)O[C@H]1C(=O)[C@@]2(C)[C@H]([C@H](OC(=O)c3ccccc3)[C@]3(O)C[C@H](OC(=O)[C@H](O)[C@@H](NC(=O)c4ccccc4)c4ccccc4)C(C)=C1C3(C)C)[C@]1(OC(C)=O)CO[C@@H]1C[C@@H]2O [taxol, 5β,20-Epoxy-1,2α,4,7β, 10β,13α-hexahydroxytax-11-en-9-one 4,10-diacetate 2-benzoate 13-ester with (2R,3S)—N-benzoyl-3-phenylisoserine] |  |  |  | degradation of aggregated ATZ protein ([1]; Caenorhabditis elegans model system): able to promote degradation of aggregated ATZ protein; dose-dependent response [1]: taxol^c; Overall rank-order [2]: 19; Rank-score ([2]; 50 µM): 73.5 |
| C#C[C@]1(O)CC[C@H]2[C@@H]3CCC4=Cc5nc6nc7ccccc7n6cc5C[C@]4(C)[C@H]3CC[C@@]21C [WIN 62,577] |  | 1233.5 | 12 |  |

| Compound | Overall rank-order [2, 3] | Rank-score [2, 4] | Overall rank-order [2, 5] | further results |
| --- | --- | --- | --- | --- |
| Cn1ccc2cc3c(cc21)CCN3C(=O)Nc1cccnc1 [SB 206553 hydrochloride] | 11 | 56.0 |  |  |
| CN[C@@H]1C[C@@H](c2ccc(Cl)c(Cl)c2)c2ccccc21 [indatraline hydrochloride] | 28 | 93.0 |  |  |
| CCN(CC)C(C)C(=O)N1c2ccccc2Sc2ccccc21.Cl (stereo not drawn) [10-(alpha-diethylaminopropionyl)-phenothiazine hydrochloride] | 21 | 75.5 |  |  |
| Clc1ccccc1C(c1ccccc1)(c1ccccc1)n1ccnc1 [clotrimazole] |  |  |  | Overall rank-order [2]: 4; Rank-score ([2]; 50 µM): 1255.0 |
| COc1cccc(C(=O)NCCN2CCN(c3ccc(Cl)cc3)CC2)c1 [N-(2-[4-(4-Chlorophenyl)piperazin-1-yl]ethyl)-3-methoxybenzamide] | 8 | 41.5 |  |  |
| N#CC(C#N)=C(N)/C(C#N)=C/c1ccc(O)cc1 [tyrphostin AG 112] | 30 | 98.0 |  |  |
| CC(C)C[C@H]1C(=O)N2CCC[C@H]2[C@]2(O)O[C@](NC(=O)[C@@H]3C=C4c5cccc6[nH]c(Br)c(c56)C[C@H]4N(C)C3)(C(C)C)C(=O)N12.CS(=O)(=O)O [(+)-bromocriptine methanesulfonate] |  | 1240.5 | 8 |  |
| O=c1[nH]c2cc(Cl)ccc2c(O)c1-c1cccc(Oc2ccccc2)c1 [L-701,324] | 12 | 57.5 |  |  |
| CCCC(=O)NCCc1c2n(c3ccc(OC)cc13)Cc1ccccc1-2 [IIK7] |  | 1236.5 | 11 |  |
| NCc1cc(=O)[nH]o1 [muscimol hydrobromide] | 5 | 28.0 |  |  |
| Cl.Cl.OCCN1CCN(CC/C=C2/c3ccccc3Sc3ccc(C(F)(F)F)cc32)CC1 [cis-(Z)-flupenthixol dihydrochloride] | 20 | 74.0 |  |  |
| CN1CCN(CCCN2c3ccccc3Sc3ccc(Cl)cc32)CC1 [prochlorperazine dimaleate] | 31 | 103.5 |  |  |
| CN(C)c1cc2c(Nc3ccc4c(cnn4Cc4ccccc4)c3)ncnc2cn1 [GW2974] |  | 1263.0 | 1 |  |
| C[N+]1(C)CCc2cc3c(cc2[C@H]1[C@@H]1OC(=O)c2c1ccc1c2OCO1)OCO3.[Br-] [(−)-bicuculline methbromide, 1(S), 9(R)] | 26 | 89.5 |  |  |
| Cc1c(CC(C)(C)C(=O)O)n(Cc2ccc(Cl)cc2)c2ccc(F)cc12 [L-655,240] | 3 | 10.5 |  |  |
| CCCN(CCC)[C@H]1CCc2c(F)ccc(O)c2C1.Cl [S(−)-UH-301 hydrochloride] | 17 | 65.0 |  |  |
| COc1cc(OC)c(C=C2C(O)=Nc3ccccc32)c(OC)c1 [IC 261] |  | 1253.5 | 5 |  |
| COc1[nH]c2ccc(F)cc2c1C(=O)OCC1CCN(CCNS(C)(=O)=O)CC1.NS(=O)(=O)O [GR 125487 sulfamate salt] | 4 | 24.0 |  |  |
